For the assay, the system named is SH-S5Y5 neuroblastoma cells. Description: Cell viability (MTT) in response to Aβ, in vitro model of Alzheimer's disease. To be noted: 20 μM Aβ, 24 h. The class given is cell-based. An excerpt:
The SH-S5Y5 neuroblastoma cell line was used for pre-clinical analysis. The SH-S5Y5 cell line is commonly used as a model for neurodegenerative disorders as the cells can be converted to various types of functional neurons by the addition of specific compounds (see, e.g., Xicoy et al., 2017, Molecular Neurodegeneration, 12: 10). In addition, the SH-S5Y5 cell line has been used widely in experimental neurological studies, including analysis of neuronal differentiation, metabolism, and function related to neurodegenerative processes, neurotoxicity and neuroprotection (see, e.g., Datki et al., 2003, Brain Research Bulletin, 62(3): 22-229; and Xie et al., 2010, Chinese Medical Journal, 123(8): 1086-1092).
100 μL MTT reagent was added to each well (final concentration 0.5 mg/mL). Cells were then incubated at 37 °C, 5% CO2 for 4 hours. Solubilization buffer (100 μL) was then added to each well and further incubated at 37 °C, 5% CO2 for 24 hours. Absorbance was then measured by spectrophotometer at 550-600 nm and background corrected at 650 nm.
Amyloid-β (Aβ; 1 mg) was dissolved in 2 mL of 1,1,1,3,3,3-hexafluoro-2-propanol (HFIP). An additional 200 μL of HFIP was then added due to volatility. The Aβ was sealed with parafilm and vortexed for 30 seconds before aliquoting at 100 μL per 1.5 mL tube. HFIP was then evaporated in fume hood for 8 hours. Tubes were then sealed with lid and parafilm and stored at −80 °C. Prior to use, Aβ was reconstituted in DMSO to a final volume of 10% v/v for 10-15 min at RT and vortexed every 3-5 min. F-12 medium was then added to a final volume of 90% v/v. Aβ was then stored at 4 °C for 24 hours and vortexed before use.
Cells were seeded in 96-well microplates and incubated 37 °C, 5% CO2 for 24 hours.

In the case of `COc1cc2c(cc1OC)C(=O)C(CC1CCN(Cc3ccccc3)CC1)C2` (centres unmarked) [Donepezil], the “Cell viability as measured by MTT” value (Donepezil 2.5 μM) is listed as −0.036; the “Cell viability as measured by MTT” value (Donepezil 5 μM) was −0.021; the “Cell viability as measured by MTT” value (Donepezil 10 μM) was determined as 0.021; the “Cell viability as measured by MTT” value (Donepezil 20 μM) is −0.011; the “Cell viability as measured by MTT” value (Donepezil 30 μM) is listed as −0.013.

The values are drawn from patent US20260345641A1, “COMPOSITIONS AND USES THEREOF” (Algorae Pharmaceuticals Ltd, priority 2023, published 2026).
